Paper PMC6100082, “Pyridine-Ureas as Potential Anticancer Agents: Synthesis and In Vitro Biological Evaluation” (Molecules : A Journal of Synthetic Chemistry and Natural …, 2018)

Assays:
Type in all cases: cell-based, human
UACC-257 = assay: NCI one-dose SRB assay (Melanoma); conditions: for inhibition at 10 µM: Homo sapiens, UACC-257, 10 μM, read-out: Percentage growth inhibition (GI%); for Growth Percent: UACC-257, 1.00E-5 Molar
Protocol: (§1) The structures of all the newly prepared pyridine-ureas 8a–n were submitted to the National Cancer Institute (NCI) Developmental Therapeutic Program. Eight compounds 8b, 8d, 8e, 8i, 8j and 8l–n were selected to be examined for their in vitro growth inhibitory activity. The anticancer assays were carried out according to the protocol of the Drug Evaluation Branch, NCI, Bethesda. The selected pyridine-ureas were tested at one dose primary anticancer assay against a panel of approximately 58 cancer lines (concentration 10^−5 M). The tested human cancer cell lines emerged from nine different cancer subtypes: leukemia, colon, melanoma, ovarian, lung, CNS, renal, breast and prostate cancers. The sulforhodamine B (SRB) protein assay was adopted to estimate the cell viability and growth. The results were reported as mean-graph of the percentage growth of the treated cells, and presented as percentage growth inhibition (GI%) caused by the test compounds (Table 2).
(§2) The anticancer assays were performed in accordance with the protocol of the Drug Evaluation Branch, NCI, Bethesda. A 48 h drug exposure protocol was used and sulforhodamine B (SRB) protein assay was applied to estimate the cell viability and growth, as reported earlier.

MDA-MB-435 = assay: NCI one-dose SRB assay (Melanoma); conditions: for inhibition at 10 µM: Homo sapiens, MDA-MB-435, 10 μM, read-out: Percentage growth inhibition (GI%); for Growth Percent: MDA-MB-435, 1.00E-5 Molar
Protocol: as §1, §2

SK-MEL-28 = assay: NCI one-dose SRB assay (Melanoma); conditions: for inhibition at 10 µM: Homo sapiens, SK-MEL-28, 10 μM, read-out: Percentage growth inhibition (GI%); for Growth Percent: SK-MEL-28, 1.00E-5 Molar
Protocol: as §1, §2

M14 = assay: NCI one-dose SRB assay (Melanoma); conditions: for inhibition at 10 µM: Homo sapiens, M14, 10 μM, read-out: Percentage growth inhibition (GI%); for Growth Percent: M14, 1.00E-5 Molar
Protocol: as §1, §2

SK-MEL-5 = assay: NCI one-dose SRB assay (Melanoma); conditions: for inhibition at 10 µM: Homo sapiens, SK-MEL-5, 10 μM, read-out: Percentage growth inhibition (GI%); for Growth Percent: SK-MEL-5, 1.00E-5 Molar
Protocol: as §1, §2

UACC-62 = assay: NCI one-dose SRB assay (Melanoma); conditions: for inhibition at 10 µM: Homo sapiens, UACC-62, 10 μM, read-out: Percentage growth inhibition (GI%); for Growth Percent: UACC-62, 1.00E-5 Molar
Protocol: as §1, §2

SK-MEL-2 = assay: NCI one-dose SRB assay (Melanoma); conditions: for inhibition at 10 µM: Homo sapiens, SK-MEL-2, 10 μM, read-out: Percentage growth inhibition (GI%); for Growth Percent: SK-MEL-2, 1.00E-5 Molar
Protocol: as §1, §2

LOX IMVI = assay: NCI one-dose SRB assay (Melanoma); conditions: for Growth Percent: 1.00E-5 Molar; for inhibition at 10 µM: Homo sapiens, read-out: Percentage growth inhibition (GI%)
Protocol: as §1, §2

MALME-3M = assay: NCI one-dose SRB assay (Melanoma); conditions: for Growth Percent: 1.00E-5 Molar; for inhibition at 10 µM: Homo sapiens, read-out: Percentage growth inhibition (GI%)
Protocol: as §1, §2

HOP-92 = assay: NCI one-dose SRB assay (Non-Small Cell Lung Cancer); conditions: for Growth Percent: HOP-92, 1.00E-5 Molar; for inhibition at 10 µM: Homo sapiens, HOP-92, 10 μM, read-out: Percentage growth inhibition (GI%)
Protocol: as §1, §2

EKVX = assay: as above; conditions: for Growth Percent: 1.00E-5 Molar; for inhibition at 10 µM: Homo sapiens, read-out: Percentage growth inhibition (GI%)
Protocol: as §1, §2

NCI-H522 = assay: as above; conditions: for inhibition at 10 µM: Homo sapiens, NCI-H522, 10 μM, read-out: Percentage growth inhibition (GI%); for Growth Percent: NCI-H522, 1.00E-5 Molar
Protocol: as §1, §2

NCI-H23 = assay: as above; conditions: for inhibition at 10 µM: Homo sapiens, NCI-H23, 10 μM, read-out: Percentage growth inhibition (GI%); for Growth Percent: NCI-H23, 1.00E-5 Molar
Protocol: as §1, §2

NCI-H322M = assay: as above; conditions: for Growth Percent: 1.00E-5 Molar; for inhibition at 10 µM: Homo sapiens, read-out: Percentage growth inhibition (GI%)
Protocol: as §1, §2

HOP-62 = assay: as above; conditions: for Growth Percent: HOP-62, 1.00E-5 Molar; for inhibition at 10 µM: Homo sapiens, HOP-62, 10 μM, read-out: Percentage growth inhibition (GI%)
Protocol: as §1, §2

A549/ATCC = assay: as above; conditions: for Growth Percent: 1.00E-5 Molar; for inhibition at 10 µM: Homo sapiens, read-out: Percentage growth inhibition (GI%)
Protocol: as §1, §2

NCI-H460 = assay: as above; conditions: for inhibition at 10 µM: Homo sapiens, NCI-H460, 10 μM, read-out: Percentage growth inhibition (GI%); for Growth Percent: NCI-H460, 1.00E-5 Molar
Protocol: as §1, §2

NCI-H226 = assay: as above; conditions: for inhibition at 10 µM: Homo sapiens, NCI-H226, 10 μM, read-out: Percentage growth inhibition (GI%); for Growth Percent: NCI-H226, 1.00E-5 Molar
Protocol: as §1, §2

K-562 = assay: NCI one-dose SRB assay (Leukemia); conditions: for inhibition at 10 µM: Homo sapiens, K562, K-562, 10 μM, read-out: Percentage growth inhibition (GI%); for Growth Percent: K-562, 1.00E-5 Molar
Protocol: as §1, §2

CCRF-CEM = assay: NCI one-dose SRB assay (Leukemia); conditions: for Growth Percent: 1.00E-5 Molar; for inhibition at 10 µM: Homo sapiens, read-out: Percentage growth inhibition (GI%)
Protocol: as §1, §2

SR = assay: NCI one-dose SRB assay (Leukemia); conditions: for Growth Percent: 1.00E-5 Molar; for inhibition at 10 µM: Homo sapiens, read-out: Percentage growth inhibition (GI%)
Protocol: as §1, §2

SF-268 = assay: NCI one-dose SRB assay (CNS Cancer); conditions: for inhibition at 10 µM: Homo sapiens, SF-268, 10 μM, read-out: Percentage growth inhibition (GI%); for Growth Percent: SF-268, 1.00E-5 Molar
Outline: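 SRB assay, 48 h drug exposure, compound fixed at 10^−5 M; output expressed as % growth inhibition.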

A498 = assay: NCI one-dose SRB assay (Renal Cancer); conditions: for Growth Percent: A498, 1.00E-5 Molar; for inhibition at 10 µM: Homo sapiens, A498, 10 μM, read-out: Percentage growth inhibition (GI%)
Protocol: as §1, §2

RXF 393 = assay: NCI one-dose SRB assay (Renal Cancer); conditions: for inhibition at 10 µM: Homo sapiens, RXF 393, 10 μM, read-out: Percentage growth inhibition (GI%); for Growth Percent: RXF 393, 1.00E-5 Molar
Protocol: as §1, §2

TK-10 = assay: NCI one-dose SRB assay (Renal Cancer); conditions: for inhibition at 10 µM: Homo sapiens, TK-10, 10 μM, read-out: Percentage growth inhibition (GI%); for Growth Percent: TK-10, 1.00E-5 Molar
Protocol: as §1, §2

SN12C = assay: NCI one-dose SRB assay (Renal Cancer); conditions: for Growth Percent: 1.00E-5 Molar; for inhibition at 10 µM: Homo sapiens, read-out: Percentage growth inhibition (GI%)
Protocol: as §1, §2

786-0 = assay: NCI one-dose SRB assay (Renal Cancer); conditions: for Growth Percent: 786-0, 1.00E-5 Molar; for inhibition at 10 µM: Homo sapiens, 786-0, 10 μM, read-out: Percentage growth inhibition (GI%)
Protocol: as §1, §2

UO-31 = assay: NCI one-dose SRB assay (Renal Cancer); conditions: for inhibition at 10 µM: Homo sapiens, UO-31, 10 μM, read-out: Percentage growth inhibition (GI%); for Growth Percent: UO-31, 1.00E-5 Molar
Protocol: as §1, §2

## COc1ccc(-c2ccc(NC(=O)Nc3ccc(Cl)cc3)c(C)n2)cc1 [Compound 8d, 1-(4-Chlorophenyl)-3-(6-(4-methoxyphenyl)-2-methylpyridin-3-yl) Urea]
UACC-257
  inhibition at 10 µM: 22%
  Growth Percent: 78.79%
MDA-MB-435
  inhibition at 10 µM: 12%
  Growth Percent: 88.00%
SK-MEL-28
  inhibition at 10 µM: 11%
  Growth Percent: 89.84%
M14
  inhibition at 10 µM: 14%
  Growth Percent: 86.55%
SK-MEL-5
  inhibition at 10 µM: 13%
  Growth Percent: 87.05%
UACC-62
  inhibition at 10 µM: 29%
  Growth Percent: 71.19%
SK-MEL-2
  inhibition at 10 µM: < 10%
  Growth Percent: 104.03%
LOX IMVI
  Growth Percent: 85.30%
  inhibition at 10 µM: 15%
MALME-3M
  Growth Percent: 104.47%
  inhibition at 10 µM: < 10%
HOP-92
  Growth Percent: 81.02%
  inhibition at 10 µM: 19%
EKVX
  Growth Percent: 92.90%
  inhibition at 10 µM: < 10%
NCI-H522
  inhibition at 10 µM: 33%
  Growth Percent: 67.47%
NCI-H23
  inhibition at 10 µM: < 10%
  Growth Percent: 94.08%
NCI-H322M
  Growth Percent: 65.27%
  inhibition at 10 µM: 35%
HOP-62
  Growth Percent: 81.25%
  inhibition at 10 µM: 19%
A549/ATCC
  Growth Percent: 68.26%
  inhibition at 10 µM: 32%
NCI-H460
  inhibition at 10 µM: 36%
  Growth Percent: 64.55%
NCI-H226
  inhibition at 10 µM: < 10%
  Growth Percent: 97.81%
K-562
  inhibition at 10 µM: 16%
  Growth Percent: 84.35%
CCRF-CEM
  Growth Percent: 81.43%
  inhibition at 10 µM: 19%
SR
  Growth Percent: 43.88%
  inhibition at 10 µM: 57%
SF-268
  inhibition at 10 µM: < 10%
  Growth Percent: 96.43%
A498
  Growth Percent: 79.24%
  inhibition at 10 µM: 21%
RXF 393
  inhibition at 10 µM: < 10%
  Growth Percent: 98.51%
TK-10
  inhibition at 10 µM: < 10%
  Growth Percent: 102.41%
SN12C
  Growth Percent: 98.33%
  inhibition at 10 µM: < 10%
786-0
  Growth Percent: 90.10%
  inhibition at 10 µM: 10%
UO-31
  inhibition at 10 µM: 11%
  Growth Percent: 89.14%

## COc1ccc(-c2ccc(NC(=O)Nc3ccc(Cl)c(C(F)(F)F)c3)c(C)n2)cc1 [Compound 8e, 1-(4-Chloro-3-(trifluoromethyl)phenyl)-3-(6-(4-methoxyphenyl)-2-methylpyridin-3-yl)urea]
UACC-257
  inhibition at 10 µM: 43%
  Growth Percent: 57.07%
MDA-MB-435
  inhibition at 10 µM: 29%
  Growth Percent: 71.95%
SK-MEL-28
  inhibition at 10 µM: 29%
  Growth Percent: 71.43%
M14
  inhibition at 10 µM: 69%
  Growth Percent: 31.87%
SK-MEL-5
  inhibition at 10 µM: 45%
  Growth Percent: 55.66%
UACC-62
  inhibition at 10 µM: 35%
  Growth Percent: 65.57%
SK-MEL-2
  inhibition at 10 µM: 38%
  Growth Percent: 62.13%
LOX IMVI
  Growth Percent: 64.51%
  inhibition at 10 µM: 36%
MALME-3M
  Growth Percent: 82.56%
  inhibition at 10 µM: 18%
HOP-92
  Growth Percent: 27.03%
  inhibition at 10 µM: 73%
EKVX
  Growth Percent: 49.19%
  inhibition at 10 µM: 51%
NCI-H522
  inhibition at 10 µM: 76%
  Growth Percent: 24.81%
NCI-H23
  inhibition at 10 µM: 70%
  Growth Percent: 30.94%
NCI-H322M
  Growth Percent: 71.44%
  inhibition at 10 µM: 29%
HOP-62
  Growth Percent: 62.10%
  inhibition at 10 µM: 38%
A549/ATCC
  Growth Percent: 38.71%
  inhibition at 10 µM: 62%
NCI-H460
  inhibition at 10 µM: 70%
  Growth Percent: 30.90%
NCI-H226
  inhibition at 10 µM: 35%
  Growth Percent: 65.24%
K-562
  inhibition at 10 µM: 84%
  Growth Percent: 16.70%
CCRF-CEM
  Growth Percent: 29.88%
  inhibition at 10 µM: 71%
SR
  Growth Percent: 35.68%
  inhibition at 10 µM: 65%
SF-268
  inhibition at 10 µM: 27%
  Growth Percent: 73.73%
A498
  Growth Percent: 57.74%
  inhibition at 10 µM: 43%
RXF 393
  inhibition at 10 µM: 19%
  Growth Percent: 81.37%
TK-10
  inhibition at 10 µM: 35%
  Growth Percent: 65.92%
SN12C
  Growth Percent: 57.41%
  inhibition at 10 µM: 43%
786-0
  Growth Percent: 56.08%
  inhibition at 10 µM: 44%
UO-31
  inhibition at 10 µM: 61%
  Growth Percent: 39.33%
